# Test results published in article PMC3499469, “Structural Insight into Inhibitor of Apoptosis Proteins Recognition by a Potent Divalent Smac-Mimetic” (PLoS ONE, 2012).
# Target: T1, cIAP2-BIR3 (Homo sapiens, UniProt Q13489)
# T1 construct: gene BIRC3; BIR3 domain, residues 245-357 as printed (jointly with cIAP1), C-terminal 6xHis-tag, pET21(b), E. coli BL21(DE3)
# Test: fluorescence polarization displacement of fluorescent probe FITC-SMAC
# Settings: read-out: Fluorescence Binding Assays IC50 [nM] / cIAP2-BIR3
# Excerpt: fluorescence polarization displacement of fluorescent probe FITC-SMAC on cIAP2-BIR3
# T1 sequence (Q13489 245-357): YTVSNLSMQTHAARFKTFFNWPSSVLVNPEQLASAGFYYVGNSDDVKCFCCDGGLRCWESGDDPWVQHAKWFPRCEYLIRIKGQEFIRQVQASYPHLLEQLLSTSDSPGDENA
structure (smiles),measurement,value
CC[C@H](NC)C(=O)N[C@@H]1C(=O)N2[C@@H](CC[C@@H]1CO)CC[C@H]2C(=O)N[C@@H](c1ccccc1)c1cn(CCCCc2ccc(CCCCn3cc([C@@H](NC(=O)[C@@H]4CC[C@@H]5CC[C@H](CO)[C@H](NC(=O)[C@H](CC)NC)C(=O)N54)c4ccccc4)nn3)cc2)nn1 [9a],IC50,1.9 ± 0.9 nM
